Measured values published in US7414051B2, “Substituted-dihydro[1,4]oxazino[2,3,4-hi]indazole derivatives as 5-hydroxytryptamine-6 ligands” (Wyeth, priority 2006, dated 2008).
Counter-ions that a name gives are not always drawn.

Tests used:
[1] = target: T1, human cloned 5-HT6 receptors (Homo sapiens, UniProt P50406); test: 5-HT6 binding affinity, [3H]-LSD displacement, membranes of Hela cells expressing human cloned 5-HT6 receptors
T1 construct: expressed in transfected cells; host or cells: HeLa cells
T1 sequence (P50406 whole entry): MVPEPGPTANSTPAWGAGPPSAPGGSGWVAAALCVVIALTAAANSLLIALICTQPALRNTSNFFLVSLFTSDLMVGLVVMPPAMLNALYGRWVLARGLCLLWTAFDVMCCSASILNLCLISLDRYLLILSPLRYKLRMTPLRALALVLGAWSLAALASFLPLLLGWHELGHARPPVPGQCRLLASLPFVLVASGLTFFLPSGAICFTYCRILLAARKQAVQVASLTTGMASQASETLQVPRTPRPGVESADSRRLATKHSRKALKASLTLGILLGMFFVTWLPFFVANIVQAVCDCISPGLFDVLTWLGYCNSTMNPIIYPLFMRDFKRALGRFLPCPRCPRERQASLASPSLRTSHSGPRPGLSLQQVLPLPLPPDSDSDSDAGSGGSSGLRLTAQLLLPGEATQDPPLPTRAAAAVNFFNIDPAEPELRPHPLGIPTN
Procedure: The affinity of test compounds for the serotonin 5-HT6 receptor was evaluated in the following manner. Cultured Hela cells expressing human cloned 5-HT6 receptors were harvested and centrifuged at low speed (1,000×g) for 10.0 minutes to remove the culture media. The harvested cells were suspended in half volume of fresh physiological phosphate buffered saline solution and recentrifuged at the same speed. This operation was repeated. The collected cells were then homogenized in ten volumes of 50 mM Tris.HCl (pH 7.4) and 0.5 mM EDTA. The homogenate was centrifuged at 40,000×g for 30.0 min and the precipitate was collected. The obtained pellet was resuspended in 10 volumes of Tris.HCl buffer and recentrifuged at the same speed. The final pellet was suspended in a small volume of Tris.HCl buffer and the tissue protein content was determined in aliquots of 10-25 μl volumes. Bovine Serum Albumin was used as the standard in the protein determination according to the method described in Lowry et al., J. Biol. Chem., 193: 265 (1951). The volume of the suspended cell membranes was adjusted to give a tissue protein concentration of 1.0 mg/ml of suspension. The prepared membrane suspension (10 times concentrated) was aliquoted in 1.0 ml volumes and stored at −70° C. until used in subsequent binding experiments.
Binding experiments were performed in a 96 well microtiter plate format, in a total volume of 200 μl. […] The test compounds were added in 20.0 μl volume.
The reaction was allowed to proceed in the dark for 120 minutes at room temperature, at which time, the bound ligand-receptor complex was filtered off on a 96 well unifilter with a Packard Filtermate® 196 Harvester. The bound complex caught on the filter disk was allowed to air dry and the radioactivity is measured in a Packard TopCount® equipped with six photomultiplier detectors, after the addition of 40.0 μl Microscint®-20 scintillant to each shallow well. The unifilter plate was heat-sealed and counted in a PackardTopCount® with a tritium efficiency of 31.0%.
Binding in the presence of varying concentrations of test compound was expressed as a percentage of specific binding in the absence of test compound. The results were plotted as log % bound versus log concentration of test compound. […] A linear regression line of data points was plotted, from which the IC50 value is determined and the Ki value is determined based upon the following equation: Ki=IC50/(1+L/KD) where L was the concentration of the radioactive ligand used and KD is the dissociation constant of the ligand for the receptor, both expressed in nM.

Row | melting point [°C] | Ki [1] [nM] | Structure (SMILES)
1 | > 225 |  | CN1CCN(c2cc3c4c(c2)c(S(=O)(=O)c2cccc5ccccc25)nn4CCO3)CC1 (as salt: hydrochloride) [Example 6, 8-(4-Methylpiperazin-1-yl)-6-(1-naphthylsulfonyl)-2,3-dihydro[1,4]oxazino[2,3,4-hi]indazole Hydrochloride]
2 |  | 1 | CN1CCN(c2cc3c4c(c2)c(S(=O)(=O)c2cccc5ccccc25)nn4CCO3)CC1 [Example 6, 8-(4-Methylpiperazin-1-yl)-6-(1-naphthylsulfonyl)-2,3-dihydro[1,4]oxazino[2,3,4-hi]indazole Hydrochloride]

The remaining lines, values behind:

Row | Structure (SMILES) | melting point [°C] | Ki [1] [nM]
3 | O=S(=O)(c1cccc2ccccc12)c1nn2c3c(cc(OCCN4CCCC4)cc13)OCC2 [Example 15, 6-(1-Naphthylsulfonyl)-8-(2-pyrrolidin-1-ylethoxy)-2,3-dihydro[1,4]oxazino[2,3,4-hi]-indazole] | 127 to 129 | 14
4 | CN(C)CCOc1cc2c3c(c1)c(S(=O)(=O)c1cccc4ccccc14)nn3CCO2 [Example 13, N,N-Dimethyl-2-{[6-(1-naphthylsulfonyl)-2,3-dihydro[1,4]oxazino[2,3,4-hi]indazol-8-yl]oxy}ethanamine] |  | 7.9
5 | O=S(=O)(c1cccc2ccccc12)c1nn2c3c(cc(OCCN4CCCCC4)cc13)OCC2 [Example 14, 6-(1-Naphthylsulfonyl)-8-(2-piperidin-1-ylethoxy)-2,3-dihydro[1,4]oxazino[2,3,4-hi]-indazole] | 90 to 92 | 26
6 | CNCCOc1cc2c3c(c1)c(S(=O)(=O)c1cccc4ccccc14)nn3CCO2 [Example 12, N-methyl-2-{[6-(1-naphthylsulfonyl)-2,3-dihydro[1,4]oxazino[2,3,4-hi]indazol-8-yl]oxy}ethanamine Hydrochloride] |  | 5.1
